Source: patent US20060052375A1, “Bis-alkylbenzylamines” (priority 2002, published 2006)

Tests used:
Format in all cases: cell-based
[1] = tested on: Staphylococcus aureus ATCC 6538; assay: Minimum inhibiting concentration (MIC value) in microtitre plates; design: unit not given here; conditions: serial dilution 1:2, 48 hours at 37° C., <20% growth compared with growth control
Description: (§1) Determination of the Minimum Inhibiting Concentration (MIC Value) in Microtitre Plates Nutrient Medium: Casein/soybean flour peptone bouillon for the preparation of the precultures of the test bacteria and yeast. Examples of Test Organisms: Bacteria: Escherichia coli ATCC 10536 (=EC) Staphylococcus aureus ATCC 6538(=SA) Procedure: The test substances are predissolved in dimethyl sulfoxide (DMSO) and tested in a serial dilution of 1:2. Bacteria and yeast are cultured overnight in CASO bouillon. All test organism suspensions are adjusted to an organism count of 1-5×10^6 CFU/ml with 0.85% sodium chloride solution. The test substances are prepipetted into microtitre plates in an amount of 8 μl per well. The previously adjusted organism suspensions are diluted 1:100 in CASO bouillon and added to the test substances in an amount of 192 μl per well. The test batches are incubated for 48 hours at 37° C. After incubation, the growth is determined by reference to the turbidity of the test batches (optical density) at 620 nm in a microplate reader. The minimum inhibiting concentration (MIC value) is the concentration of substance at which an appreciable inhibition of the growth (<20% growth compared with the growth control) of the test organisms is ascertained. Three microtitre plates are used for each test organism and substance concentration.

[2] = tested on: Escherichia coli ATCC 10536; assay: as above; design: unit not given here; conditions: serial dilution 1:2, 48 hours at 37° C., <20% growth compared with growth control
Description: as §1

[3] = tested on: Klebsiella pneumoniae ATCC 4352; assay: MIC in agar incorporation test; conditions: GC purity 88%
Description: (§2) Determination of the Minimum Inhibiting Concentration of the Compound of Formula (3) in Respect of a Wider Spectrum of Organisms The compound of formula (3) (see Table 1; GC purity 88%; prepared in accordance with Example 1) is tested on the microorganisms indicated in Table 3. The test for determining the minimum inhibiting concentration is effected in an agar incorporation test.

[4] = tested on: Propionibacterium acnes ATCC 6919; assay: MIC in agar incorporation test; conditions: GC purity 88%
Description: as §2

[5] = tested on: Salmonella choleraesuis ATCC 9184; assay: MIC in agar incorporation test; conditions: GC purity 88%
Description: as §2

[6] = tested on: Candida albicans ATCC 10231; assay: MIC in agar incorporation test; conditions: GC purity 88%
Description: as §2

[7] = tested on: Proteus vulgaris ATCC 6896; assay: MIC in agar incorporation test; conditions: GC purity 88%
Description: as §2

[8] = tested on: Pseudomonas aeruginosa ATCC 15442; assay: MIC in agar incorporation test; conditions: GC purity 88%
Description: as §2

[9] = tested on: Staphylococcus aureus ATCC 9144; assay: MIC in agar incorporation test; conditions: GC purity 88%
Description: as §2

[10] = tested on: Escherichia coli NCTC 8196; assay: MIC in agar incorporation test; conditions: GC purity 88%
Description: as §2

[11] = tested on: C. minutissimum ATCC 23348; assay: MIC in agar incorporation test; conditions: GC purity 88%
Description: as §2

[12] = tested on: Staphylococcus aureus ATCC 6538; assay: MIC in agar incorporation test; conditions: GC purity 88%
Description: as §2

[13] = tested on: Escherichia coli ATCC 10536; assay: MIC in agar incorporation test; conditions: GC purity 88%
Description: as §2

[14] = tested on: Aspergillus niger ATCC 6275; assay: MIC in agar incorporation test; conditions: GC purity 88%
Description: as §2

[15] = tested on: Corynebacterium xerosis ATCC 373; assay: MIC in agar incorporation test; conditions: GC purity 88%
Description: as §2

[16] = tested on: Staphylococcus epidermidis ATCC 12228; assay: MIC in agar incorporation test; conditions: GC purity 88%
Description: as §2

| MIC value ATCC 6538 [1] | MIC value ATCC 10536 [2] | SMILES | other results |
| --- | --- | --- | --- |
| 30 | 15 | CCCCCCCCCCNCc1ccc(-c2ccc(CNCCCCCCCCCC)cc2)cc1 [Compound of formula 4] |  |
| 15 | 30 | CCCC(C)NCc1ccc(-c2ccc(CNC(C)CCC)cc2)cc1 (centres unmarked) [Compound of formula 10] |  |
| 120 | 120 | c1ccc(CNCc2ccc(-c3ccc(CNCc4ccccc4)cc3)cc2)cc1 [Compound of formula 15] |  |
| >120 | >120 | c1coc(CNCc2ccc(-c3ccc(CNCc4ccco4)cc3)cc2)c1 [Compound of formula 20] |  |
| 60 | >120 | CC(C)(C)NCc1ccc(-c2ccc(CNC(C)(C)C)cc2)cc1 [Compound of formula 9] |  |
| 7.5 | 15 | CCCCCCCCN(CCCCCCCC)Cc1ccc(-c2ccc(CN(CCCCCCCC)CCCCCCCC)cc2)cc1 [Compound of formula 28] |  |
| 30 | 30 | CCCCCCCCCCCCCNCc1ccc(-c2ccc(CNCCCCCCCCCCCCC)cc2)cc1 [Compound of formula 6] |  |
| 15 | >120 | CCCCCCN(CCCCCC)Cc1ccc(-c2ccc(CN(CCCCCC)CCCCCC)cc2)cc1 [Compound of formula 27] |  |
| 60 | 120 | c1cc(-c2ccc(CNC3CCCCC3)cc2)ccc1CNC1CCCCC1 [Compound of formula 16] |  |
| 15 | >120 | CCN(CC)Cc1ccc(-c2ccc(CN(CC)CC)cc2)cc1 [Compound of formula 23] |  |
| 30 | 30 | CC(C)CCNCc1ccc(-c2ccc(CNCCC(C)C)cc2)cc1 [Compound of formula 11] |  |
| 30 | >120 | CCCCCN(CCCCC)Cc1ccc(-c2ccc(CN(CCCCC)CCCCC)cc2)cc1 [Compound of formula 26] |  |
| >120 | >120 | CCCCN(CCCC)Cc1ccc(-c2ccc(CN(CCCC)CCCC)cc2)cc1 [Compound of formula 25] |  |
| >120 | >120 | CCCN(CCC)Cc1ccc(-c2ccc(CN(CCC)CCC)cc2)cc1 [Compound of formula 24] |  |
| 7.5 | 7.5 | CCCCC(CC)CNCc1ccc(-c2ccc(CNCC(CC)CCCC)cc2)cc1 (centres unmarked) [Compound of formula 13] |  |
| >120 | 120 | CCCCN(C)Cc1ccc(-c2ccc(CN(C)CCCC)cc2)cc1 [Compound of formula 21] |  |
| 15 | 15 | c1ccc(CCNCc2ccc(-c3ccc(CNCCc4ccccc4)cc3)cc2)cc1 [Compound of formula 17] |  |
| 15 | 15 | CCCCCCCCCCCCN(C)Cc1ccc(-c2ccc(CN(C)CCCCCCCCCCCC)cc2)cc1 [Compound of formula 22] |  |
| >120 | >120 | CC(=O)N1CCN(Cc2ccc(-c3ccc(CN4CCN(C(C)=O)CC4)cc3)cc2)CC1 [Compound of formula 19] |  |
| 30 | 30 | CCCCCCCCCCCNCc1ccc(-c2ccc(CNCCCCCCCCCCC)cc2)cc1 [Compound of formula 5] |  |
| 15 | 60 | CCC(C)NCc1ccc(-c2ccc(CNC(C)CC)cc2)cc1 (centres unmarked) [Compound of formula 8] |  |
| 30 | >120 | COCC(C)NCc1ccc(-c2ccc(CNC(C)COC)cc2)cc1 (centres unmarked) [Compound of formula 14] |  |
| 7.5 | <3.75 | CCCCCCCCNCc1ccc(-c2ccc(CNCCCCCCCC)cc2)cc1 [Compound of formula 3, octyl-(4′-octylaminomethyl-biphenyl-4-ylmethyl)-amine] | MIC [3]: 7.5; MIC [4]: 3.75; MIC [5]: 7.5; MIC [6]: >120; MIC [7]: >120; MIC [8]: >120; MIC [9]: 3.75; MIC [10]: 3.75; MIC [11]: 1.88; MIC [12]: 3.75; MIC [13]: 3.75; MIC [14]: >120; MIC [15]: 1.88; MIC [16]: 3.75 |
| >120 | >120 | CN(CCO)Cc1ccc(-c2ccc(CN(C)CCO)cc2)cc1 [Compound of formula 30] |  |
| 60 | 120 | c1cc(-c2ccc(CN3CCCCCC3)cc2)ccc1CN1CCCCCC1 [Compound of formula 31] |  |
| 15 | 30 | CC(C)NCc1ccc(-c2ccc(CNC(C)C)cc2)cc1 [Compound of formula 7] |  |
| >120 | >120 | c1cc(-c2ccc(CN3CCOCC3)cc2)ccc1CN1CCOCC1 [Compound of formula 18] |  |
| 30 | 60 | CC(C)CC(C)NCc1ccc(-c2ccc(CNC(C)CC(C)C)cc2)cc1 (centres unmarked) [Compound of formula 12] |  |
| 15 | 15 | CCCNCc1ccc(-c2ccc(CNCCC)cc2)cc1 [Compound of formula 2] |  |
| >120 | >120 | c1ccc(CN(Cc2ccccc2)Cc2ccc(-c3ccc(CN(Cc4ccccc4)Cc4ccccc4)cc3)cc2)cc1 [Compound of formula 29] |  |
